The results in this text go back to patent US20260216174A1, “TREATMENT OF ER+ BREAST CANCER COMPRISING HOMOLOGOUS RECOMBINATION DEFICIENCY USING PARG INHIBITOR” (IDEAYA BIOSCIENCES, INC., priority 2023, published 2026).

Structures are written as SMILES.

What all share (test): Cellular antiproliferative response, Assay 2 (nuclear dye intensity)
Format in all cases: cell-based

One test deals with EFM-19. The note with it: Homo sapiens, 240 h; EFM-19, HR mutant ATM, Assay 2, 10-day incubation; read-out: Log10 (IC50) (converted). The protocol: (§1) Compound A was tested in a cell line panel. Cell lines were grown in RPMI 1640, 10% FBS, 2 mM L-alanyl-L-glutamine, 1 mM Na pyruvate, or a special medium. Cells were seeded into 384-well plates and incubated in a humidified atmosphere of 5% CO2 at 37° C. The following day, Compound A was added by serial dilution in half-log steps from the highest test concentration of 30 μM and assayed over ten concentrations. A time zero untreated cell plate was also generated. At seven days post-seeding, the growth media were replaced, and the plates were re-dosed with the test compound. After a 10-day incubation period, cells were fixed and stained with a fluorescent nuclear dye. Automated fluorescence microscopy was carried out using a Molecular Devices ImageXpress Micro XL high-content imager, and images were collected with a 4× objective. 16-bit TIFF images were acquired and analyzed with MetaXpress 5.1.0.41 software.
(§2) Cell proliferation effects of Compound A was measured using the fluorescent intensity of the incorporated nuclear dye as a percent of the control (POC), where POC=(Ix/I0)×100. Ix=nuclear intensity at concentration x and I0=average nuclear intensity of the untreated vehicle wells. Cellular IC50 was calculated using nonlinear regression to a sigmoidal single-site dose response model. Curve fitting, calculations, and report generation was performed using a custom data reduction engine and MathIQ based software (AIM).

The next test deals with HCC1599. Conditions: Homo sapiens, 240 h; HCC1599, HR mutant BRCA2, Assay 2, 10-day incubation; read-out: Log10 (IC50) (converted). Here is the method:
as §1, §2

The subject of another test is HCC1428. The note with it: Homo sapiens, 240 h; HCC1428, HR mutant BRCA2, Assay 2, 10-day incubation; read-out: Log10 (IC50) (converted). The protocol:
as §1, §2

Another test has as its system MDA-MB-436. The note with it: Homo sapiens, 240 h; MDA-MB-436, HR mutant BRCA1, Assay 2, 10-day incubation; read-out: Log10 (IC50) (converted). The protocol:
as §1, §2

The subject of the next test is CAL-85-1. Conditions: Homo sapiens, 240 h; CAL-85-1, HR mutant BRCA2, Assay 2, 10-day incubation; read-out: Log10 (IC50) (converted). Here is the method: as §1, §2
In the next test the test system is HCC1395. The note with it: Homo sapiens, 240 h; HCC1395, HR mutant BRCA1, BRCA2, Assay 2, 10-day incubation; read-out: Log10 (IC50) (converted). Here is the method: as §1, §2
The subject of the next test is HCC1937. Conditions: Homo sapiens, 240 h; HCC1937, HR mutant BRCA1, Assay 2, 10-day incubation; read-out: Log10 (IC50) (converted). Here is the method: as §1, §2
The next test deals with HCC1569. The note with it: Homo sapiens, 240 h; HCC1569, HR mutant BRCA2, Assay 2, 10-day incubation; read-out: Log10 (IC50) (converted). The protocol: as §1, §2
In the next test the test system is HCC202. Conditions: 240 h; HCC202, HR mutant BRCA2, Assay 2, 10-day incubation; read-out: Log10 (IC50) (converted). Here is the method: as §1, §2
For the next test, the system named is HCC1954. The note with it: Homo sapiens, 240 h; HCC1954, HR mutant BRCA1, Assay 2, 10-day incubation; read-out: Log10 (IC50) (converted). The protocol:
as §1, §2

A further test relates to AU565. Conditions: Homo sapiens, 240 h; AU565, HR mutant CHEK2, Assay 2, 10-day incubation; read-out: Log10 (IC50) (converted). Here is the method:
as §1, §2

For a further test, the system named is BT-474. The note with it: Homo sapiens, 240 h; BT-474, HR mutant BRCA2, Assay 2, 10-day incubation; read-out: Log10 (IC50) (converted). The protocol:
as §1, §2

The next test deals with CAL-51. The note with it: Homo sapiens, 240 h; CAL-51, HR mutant BRCA2, CHEK1, Assay 2, 10-day incubation; read-out: Log10 (IC50) (converted). The protocol:
as §1, §2

Take `C[C@H]1CN(c2cc(S(=O)(=O)NC3(C)CC3)cc3c2cnn3-c2nnc(C(F)F)s2)C[C@H](C)N1` [Compound A, 1-(5-(difluoromethyl)-1,3,4-thiadiazol-2-yl)-4-((3S,5S)-3,5-dimethylpiperazin-1-yl)-N-(1-methylcyclopropyl)-1H-indazole-6-sulfonamide]: the IC50 is 689 nM with EFM-19; 1310 nM in the test on HCC1599; 10 nM in the test with HCC1428; 52.4 nM in the test with MDA-MB-436; 100 nM in the test on CAL-85-1; 30 nM in the test with HCC1395. Also, the half-inhibitory concentration (IC50) with HCC1937 was 220 nM; with HCC1569, 80 nM; with HCC202 it was 640 nM; in the test on HCC1954, 370 nM; in the test with AU565, 52.3 nM; with BT-474, 847 nM. In the test with CAL-51, the IC50 is 3530 nM.
